Results as given in the NIST ThermoML archive (doi:10.1016/j.fluid.2011.11.023).
± gives the expanded uncertainty stated by the source.

Conditions: Crystal; visual observation

Nc1cccnc1 [β-aminopyridine] gave a Normal melting temperature of 64.50 ± 0.5 °C.
